Laboratory results taken from paper PMC10057847, “Precision engineering of biological function with large-scale measurements and machine learning” (PLOS ONE, 2023).

What was measured:
Assay in all cases: In vivo IPTG dose-response of LacI-regulated eYFP expression from the pVER plasmid in E. coli grown in rich M9 medium at 37 °C, measured by flow cytometry and fitted to the Hill equation by Bayesian MCMC (posterior mean and SD).
Format in all cases: cell-based, E. coli MG1655Δlac
Conditions in all cases: read-out: log_ec50 (base-10 logarithm of EC50 in μmol/L) (converted)
pVER-IPTG-077 = target: T1, pVER-IPTG-077 (Escherichia coli, UniProt P03023, A222T/D152E/I64V/K327N/L295M/N208I/Q131R/T141A/V95M)
T1 construct: gene lacI; LacI expressed from pVER plasmid
Description: (§1) All reported measurements were completed using E. coli strain MG1655Δlac, in which the lactose operon of E. coli strain MG1655 (ATCC #47076) was replaced with the bleomycin resistance gene from Streptoalloteichus hindustanus (Shble).
(§2) Dose-response curves were measured with flow cytometry using E. coli MG1655Δlac transformed with variants of the pVER plasmid, described previously. The plasmid contained different variants of the lacI coding DNA sequence (CDS), as described in the text, and an expression cassette with enhanced yellow fluorescent protein (eYFP) under the control of the lactose operator (lacO). The lacI CDS was verified with Sanger sequencing for each variant.
(§3) All cultures were grown in a rich M9 media (3 g/L KH2PO4, 6.78 g/L Na2HPO4, 0.5 g/L NaCl, 1 g/L NH4Cl, 0.1 mmol/L CaCl2, 2 mmol/L MgSO4, 4% glycerol, and 20 g/L casamino acids) supplemented with 50 μg/mL kanamycin.
(§4) • Prepare first growth plate, with 450 μL rich M9 media in each well. • Pipette 50 μL of starter culture into each well in rows B-G of the plate (leaving rows A and H blank). • Use a E. coli containing a different lacI variant for each row. • Seal first growth plate with gas permeable membrane. • Incubate plate in plate reader for 12 h to 14 h. • Grow to stationary to provide a reproducible starting point for each measurement. • Prepare second growth plate with 490 μL in each well. • Dilution series of isopropyl-β-D-thiogalactopyranoside (IPTG): 11 columns of a 2-fold serial dilution gradient and one column with zero IPTG. • Ten minutes before the end of the incubation cycle for the first growth plate, move the second growth plate to a heated station set to 47°C. • Ten minutes at 47°C will pre-warm the media in the plate to 37°C. • De-seal the first growth plate (after completion of the stationary-phase incubation cycle). • Pipette 10 μL from each well in the first growth plate to the corresponding well in the second growth plate. • 50-fold dilution; using a 96-channel pipetting head. • Seal second growth plate with gas permeable membrane. • Incubate second growth plate in plate reader for 160 minutes. • Sufficient for approximately 10-fold increase in cell density or 3.3 doublings. • Prepare third growth plate with 450 μL in each well. • Same dilution series as in second growth plate. • Ten minutes before the end of the incubation cycle for the second growth plate, move the third growth plate to a heated station set to 47°C. • De-seal the second growth plate (after completion of the 160 minute incubation cycle). • Pipette 50 μL from each well in the second growth plate to the corresponding well in the third growth plate. • 10-fold dilution; using a 96-channel pipetting head. • Seal third growth plate with gas permeable membrane. • Incubate third growth plate in plate reader for 160 minutes. • Prepare flow cytometry sample plate (round-bottom 96-well plate, Falcon, 351177). • Each well in rows B-G: 195 μL 1x PBS with 170 μg/mL chloramphenicol (Fisher BioReagents, cat. #BP904-100). • Rows A and H: PBS blanks, focusing fluid blanks, and space for calibration bead sample • At the end of the incubation cycle for the third growth plate, pipette 5 μL from each well to the corresponding well in the flow cytometry sample plate.
(§5) Flow cytometry samples were measured with an Attune NxT flow cytometer equipped with a 96-well plate autosampler using a 488 nm excitation laser and a 530 nm ± 15 nm bandpass emission filter. Blank samples were measured with each batch of cell measurements, and an automated gating algorithm was used to discriminate cell events from non-cell events. Fluorescence calibration beads (Spherotech, part no. RCP-30-20A) were also measured with each batch of samples to facilitate calibration of flow cytometry data to molecules of equivalent fluorescein (MEF). […]

pVER-IPTG-002(S70R) = target: T2, pVER-IPTG-002(S70R) (Escherichia coli, UniProt P03023, M254I/S158R/S70R/T154I/V238D/V264I/V96E)
T2 construct: gene lacI; LacI expressed from pVER plasmid
Description: as §1, §2, §3, §4, §5

pVER-IPTG-003 = target: T3, pVER-IPTG-003 (Escherichia coli, UniProt P03023, A337V/G200V/H74Y/K290R/L262M/Q306H/R207H/V119I/V52M)
T3 construct: gene lacI; LacI expressed from pVER plasmid; stop codon at 352
Description: as §1, §2, §3, §4, §5

pVER-IPTG-009 = target: T4, pVER-IPTG-009 (Escherichia coli, UniProt P03023, I210L/I283N/M254T/N157D/P76Q/Q181H/V150A)
T4 construct: gene lacI; LacI expressed from pVER plasmid
Description: as §1, §2, §3, §4, §5

pVER-IPTG-010 = target: T5, pVER-IPTG-010 (Escherichia coli, UniProt P03023, A72V/I210F/K84N/M254T/T336S)
T5 construct: gene lacI; LacI expressed from pVER plasmid
Description: as §1, §2, §3, §4, §5

pVER-IPTG-004 = target: T6, pVER-IPTG-004 (Escherichia coli, UniProt P03023, A87P/E357G/V301M)
T6 construct: gene lacI; LacI expressed from pVER plasmid
Description: as §1, §2, §3, §4, §5

pVER-IPTG-008 = target: T7, pVER-IPTG-008 (Escherichia coli, UniProt P03023, A266T/I237T/I289F/S61L/T258S)
T7 construct: gene lacI; LacI expressed from pVER plasmid; stop codon at 351
Description: as §1, §2, §3, §4, §5

pVER-IPTG-002(V80L) = target: T8, pVER-IPTG-002(V80L) (Escherichia coli, UniProt P03023, M254I/S158R/T154I/V238D/V264I/V80L/V96E)
T8 construct: gene lacI; LacI expressed from pVER plasmid
Description: as §1, §2, §3, §4, §5

pVER-IPTG-080 = target: T9, pVER-IPTG-080 (Escherichia coli, UniProt P03023, A109E/D165V/E259G/G166A/R255C)
T9 construct: gene lacI; LacI expressed from pVER plasmid
Description: as §1, §2, §3, §4, §5

pVER-IPTG-002 = target: T10, pVER-IPTG-002 (Escherichia coli, UniProt P03023, M254I/S158R/T154I/V238D/V264I/V96E)
T10 construct: gene lacI; LacI expressed from pVER plasmid
Description: as §1, §2, §3, §4, §5

pVER-IPTG-078 = target: T11, pVER-IPTG-078 (Escherichia coli, UniProt P03023, A110V/A72V/N142D/S322L)
T11 construct: gene lacI; LacI expressed from pVER plasmid
Description: as §1, §2, §3, §4, §5

pVER-IPTG-004(V80L) = target: T12, pVER-IPTG-004(V80L) (Escherichia coli, UniProt P03023, A87P/E357G/V301M/V80L)
T12 construct: gene lacI; LacI expressed from pVER plasmid
Description: as §1, §2, §3, §4, §5

T8 sequence (P03023 whole entry V80L/V96E/T154I/S158R/V238D/M254I/V264I): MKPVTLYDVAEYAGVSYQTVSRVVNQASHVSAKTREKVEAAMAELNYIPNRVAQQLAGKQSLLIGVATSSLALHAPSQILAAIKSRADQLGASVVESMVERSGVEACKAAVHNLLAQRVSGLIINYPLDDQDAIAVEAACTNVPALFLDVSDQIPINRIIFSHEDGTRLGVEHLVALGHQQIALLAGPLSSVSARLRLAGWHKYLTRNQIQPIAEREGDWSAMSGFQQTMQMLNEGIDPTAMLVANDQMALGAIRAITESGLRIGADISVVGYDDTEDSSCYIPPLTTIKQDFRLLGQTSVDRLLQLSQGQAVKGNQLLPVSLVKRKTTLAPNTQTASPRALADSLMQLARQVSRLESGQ
T12 sequence (P03023 whole entry V80L/A87P/V301M/E357G): as the sequence (P03023 whole entry V80L/V96E/T154I/S158R/V238D/M254I/V264I) above, with A87P, E96V, I154T, R158S, D238V, I254M, I264V, V301M, E357G counted along it
T10 sequence (P03023 whole entry V96E/T154I/S158R/V238D/M254I/V264I): as the sequence (P03023 whole entry V80L/V96E/T154I/S158R/V238D/M254I/V264I) above, with L80V counted along it
T7 sequence (P03023 1-350 S61L/I237T/T258S/A266T/I289F): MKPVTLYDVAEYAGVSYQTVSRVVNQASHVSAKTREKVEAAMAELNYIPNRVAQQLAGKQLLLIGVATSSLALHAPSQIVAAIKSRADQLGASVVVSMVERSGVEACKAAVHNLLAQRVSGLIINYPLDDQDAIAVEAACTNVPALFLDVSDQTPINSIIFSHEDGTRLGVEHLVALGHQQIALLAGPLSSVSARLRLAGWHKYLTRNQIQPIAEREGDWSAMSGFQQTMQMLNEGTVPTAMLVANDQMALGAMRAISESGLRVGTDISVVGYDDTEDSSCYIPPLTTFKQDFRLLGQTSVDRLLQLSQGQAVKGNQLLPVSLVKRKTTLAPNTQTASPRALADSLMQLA
T4 sequence (P03023 whole entry P76Q/V150A/N157D/Q181H/I210L/M254T/I283N): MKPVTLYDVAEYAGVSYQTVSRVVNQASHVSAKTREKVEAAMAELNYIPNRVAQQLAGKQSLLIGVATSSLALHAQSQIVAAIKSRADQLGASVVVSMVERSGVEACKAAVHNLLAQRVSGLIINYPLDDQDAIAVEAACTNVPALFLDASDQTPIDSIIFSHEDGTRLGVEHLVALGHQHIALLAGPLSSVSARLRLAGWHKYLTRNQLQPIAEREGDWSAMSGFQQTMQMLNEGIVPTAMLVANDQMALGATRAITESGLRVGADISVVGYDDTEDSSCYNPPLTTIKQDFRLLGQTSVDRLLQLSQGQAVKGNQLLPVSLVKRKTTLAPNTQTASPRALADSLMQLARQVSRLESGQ
T6 sequence (P03023 whole entry A87P/V301M/E357G): as the sequence (P03023 whole entry V80L/V96E/T154I/S158R/V238D/M254I/V264I) above, with L80V, A87P, E96V, I154T, R158S, D238V, I254M, I264V, V301M, E357G counted along it
T11 sequence (P03023 whole entry A72V/A110V/N142D/S322L): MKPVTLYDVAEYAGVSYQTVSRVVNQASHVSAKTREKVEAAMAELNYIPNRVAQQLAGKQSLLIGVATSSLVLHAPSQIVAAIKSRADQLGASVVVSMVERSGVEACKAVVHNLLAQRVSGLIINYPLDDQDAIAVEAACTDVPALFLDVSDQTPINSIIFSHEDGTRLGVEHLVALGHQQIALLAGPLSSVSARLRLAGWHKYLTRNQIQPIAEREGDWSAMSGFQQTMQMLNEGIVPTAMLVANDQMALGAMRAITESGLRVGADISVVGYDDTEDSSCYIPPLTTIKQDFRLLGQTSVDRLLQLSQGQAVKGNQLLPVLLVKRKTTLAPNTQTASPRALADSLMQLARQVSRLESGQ
T9 sequence (P03023 whole entry A109E/D165V/G166A/R255C/E259G): as the sequence (P03023 whole entry A72V/A110V/N142D/S322L) above, with V72A, A109E, V110A, D142N, D165V, G166A, R255C, E259G, L322S counted along it
T3 sequence (P03023 1-351 V52M/H74Y/V119I/G200V/R207H/L262M/K290R/Q306H/A337V): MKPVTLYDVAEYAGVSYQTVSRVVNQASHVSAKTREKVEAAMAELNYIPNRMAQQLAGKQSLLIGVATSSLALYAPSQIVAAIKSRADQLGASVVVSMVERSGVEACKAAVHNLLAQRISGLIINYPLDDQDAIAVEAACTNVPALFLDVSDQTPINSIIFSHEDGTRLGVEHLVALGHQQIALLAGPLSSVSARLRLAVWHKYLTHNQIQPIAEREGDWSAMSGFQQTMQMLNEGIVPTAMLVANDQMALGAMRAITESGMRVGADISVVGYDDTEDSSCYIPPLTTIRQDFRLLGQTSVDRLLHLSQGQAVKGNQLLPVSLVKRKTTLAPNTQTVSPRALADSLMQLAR
T5 sequence (P03023 whole entry A72V/K84N/I210F/M254T/T336S): as the sequence (P03023 whole entry A72V/A110V/N142D/S322L) above, with K84N, V110A, D142N, I210F, M254T, L322S, T336S counted along it
T1 sequence (P03023 whole entry I64V/V95M/Q131R/T141A/D152E/N208I/A222T/L295M/K327N): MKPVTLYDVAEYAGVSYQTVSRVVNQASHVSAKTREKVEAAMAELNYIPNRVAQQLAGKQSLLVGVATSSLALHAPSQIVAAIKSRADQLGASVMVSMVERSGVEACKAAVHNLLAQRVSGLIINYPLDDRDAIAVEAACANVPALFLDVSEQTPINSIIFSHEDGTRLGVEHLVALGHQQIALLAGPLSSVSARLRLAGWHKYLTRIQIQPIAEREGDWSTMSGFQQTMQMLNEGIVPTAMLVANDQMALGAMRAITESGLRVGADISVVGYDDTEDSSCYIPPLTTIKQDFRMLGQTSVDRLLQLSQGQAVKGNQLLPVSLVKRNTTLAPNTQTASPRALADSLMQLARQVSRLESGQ
T2 sequence (P03023 whole entry S70R/V96E/T154I/S158R/V238D/M254I/V264I): as the sequence (P03023 whole entry V80L/V96E/T154I/S158R/V238D/M254I/V264I) above, with S70R, L80V counted along it

How did the EC50 (pVER-IPTG-077) turn out when CC(C)S[C@@H]1O[C@H](CO)[C@H](O)[C@H](O)[C@H]1O [IPTG, isopropyl-β-D-thiogalactopyranoside] was run?
The EC50 was 2.95 µmol/L.

What about the EC50 (pVER-IPTG-002(S70R)) of the same molecule?
The EC50 was 4690 µmol/L.

And the EC50 (pVER-IPTG-003)?
The EC50 was 162 µmol/L.

And the EC50 (pVER-IPTG-009)?
Its EC50 is 169 µmol/L.

And the EC50 (pVER-IPTG-010)?
Its EC50 is 9.17 µmol/L.

And the EC50 (pVER-IPTG-004)?
The EC50 was 234 µmol/L.

And the EC50 (pVER-IPTG-008)?
The EC50 was 77.3 µmol/L.

And the EC50 (pVER-IPTG-002(V80L))?
The EC50 was 47.7 µmol/L.

What about the EC50 (pVER-IPTG-080) of the same molecule?
The EC50 was 6.96 µmol/L.

What about the EC50 (pVER-IPTG-002) of the same molecule?
Its EC50 is 233 µmol/L.

What about the EC50 (pVER-IPTG-078) of the same molecule?
The EC50 was 3.61 µmol/L.

What about the EC50 (pVER-IPTG-004(V80L)) of the same molecule?
Its EC50 is 36.8 µmol/L.
